Format in all cases: cell-based
For one experiment, the system named is BHK-21 cells. The experiment in a line: Anti-fibrosis activity test: inhibition of BHK-21 cell proliferation (CCK-8). The conditions noted are these: Mesocricetus auratus, BHK-21, 48 h, 48 h, CCK-8. The method in brief:
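BHK-21 cells seeded at 2×10^4 cells/mL, allowed to adhere 24 h at 37° C, 5% CO2, then exposed to compounds at graded concentrations in triplicate for 48 h. CCK-8 added for 2 h and absorbance read at 450 nm; inhibition rate taken as (1−Ai/Ao)×100% and IC50 fitted.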

Experiment [1] concerns human lung fibroblasts HFL1. The experiment is described as follows: Anti-fibrosis activity test: inhibition of proliferation of human lung fibroblasts HFL1 (CCK-8). The conditions noted are these: Homo sapiens, HFL1, 48 h, HFL1 cells, 48 h, CCK-8. The method in brief: (§1)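 Cells seeded at 2×10^4 cells/mL, adhered 24 h, then exposed to compound concentrations in triplicate for 48 h at 37° C, 5% CO2. CCK-8 added for 2 h, absorbance at 450 nm; inhibition = (1−Ai/Ao)×100% versus blank control, IC50 calculated.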

In experiment [2] the test system is human hepatic stellate cells LX-2. The experiment in a line: Anti-fibrosis activity test: inhibition of proliferation of human hepatic stellate cells LX-2 (CCK-8). The settings on record: Homo sapiens, LX-2, 48 h, LX-2 cells, 48 h, CCK-8. A digest of the protocol: as §1
In experiment [3] the test system is human fibrosarcoma cells HT-1080. The experiment in a line: Anti-fibrosis activity test: inhibition of proliferation of human fibrosarcoma cells HT-1080 (CCK-8). The conditions noted are these: Homo sapiens, HT-1080, 48 h, HT-1080 cells, 48 h, CCK-8. A digest of the protocol:
as §1

Experiment [4] concerns human dermal fibroblasts CCC-ESF-1. The experiment is described as follows: Anti-fibrosis activity test: inhibition of proliferation of human dermal fibroblasts CCC-ESF-1 (CCK-8). The conditions noted are these: Homo sapiens, Fibroblast; CCC-ESF-1 cells, 48 h, CCK-8. The method in brief: as §1
The test system of experiment [5] is human embryonic lung fibroblast IMR-90. The experiment in a line: Anti-fibrosis activity test: inhibition of proliferation of human embryonic lung fibroblast IMR-90 (CCK-8). The conditions noted are these: Homo sapiens; IMR-90 cells, 48 h, CCK-8. A digest of the protocol: as §1
Experiment [6] has as its system cardiac fibroblast RAT-iCell-C002. The experiment in a line: Anti-fibrosis activity test: inhibition of proliferation of cardiac fibroblast RAT-iCell-C002 (CCK-8). The conditions noted are these: Cardiac fibroblast, 48 h, RAT-iCell-C002 cells, CCK-8. A digest of the protocol: as §1
The test system of a further experiment is NF-κB. The experiment in a line: Immunological activity test: inhibition of NF-κB activity. The conditions noted are these: initial concentration of 30 μM; a/b isomers given as first/second symbol; read-out: IC50 (μM), inhibitory activity against NF-κB. A digest of the protocol: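 NF-κB inhibition was tested at an initial 30 μM compound concentration, with parthenolide as positive control, and IC50 values were determined from follow-up analysis.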

Experiment [7] relates to mouse macrophages (RAW264.7). The experiment is described as follows: Lipopolysaccharide-induced NO secretion in macrophages (Griess). The conditions noted are these: Mus musculus, RAW264.7, 24 h, RAW264.7, LPS 1 μg/ml, a/b isomers given as first/second symbol, read-out: IC50 (μM), inhibition of lipopolysaccharide-induced NO secretion in macrophages. A digest of the protocol: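 RAW264.7 macrophages in DMEM with 10% FBS received test samples at several concentrations and were stimulated with 1 μg/ml LPS for 24 h. NO in the supernatant was measured with the Griess reagent at 548 nm, […].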
For orientation: Griess reagent forms a coloured azo dye with nitrite.

Structures are written as SMILES.

Take `Cc1cc(C)c2[nH]c3c(c(=O)c2c1)C(=O)n1cccc1-3` [Compound 750a, 5,7-Dimethyl-9H-pyrrolizino[1,2-b]quinoline-9,10(4H)-dione]: the IC50 (in the experiment on BHK-21 cells; in experiment [1]; in experiment [2]; in experiment [3]; in [4]; in experiment [5]) was 0.05 to 5 mM each time. In addition, the IC50 lay within 0.05 to 5 mM in [6], 1 to 10 µM with NF-κB and 1 to 10 µM in experiment [7].
Take `Cc1cc(C)c2nc3c(c(O)c2c1)C(=O)n1cccc1-3` [Compound 750b, 9-hydroxy-5,7-dimethyl-10H-pyrrolizino[1,2-b]quinolin-10-one]: the IC50 (in the experiment with BHK-21 cells; in [1]; in experiment [2]; in [3]; in experiment [4]; in experiment [5]) was 0.05 to 5 mM in each case. The IC50 was 0.05 to 5 mM in experiment [6], 1 to 10 µM with NF-κB and 1 to 10 µM in experiment [7].
`Cc1cc2[nH]c3c(c(=O)c2cc1C)C(=O)n1cccc1-3` [Compound 756a, 6,7-Dimethyl-9H-pyrrolizino[1,2-b]quinoline-9,10(4H)-dione]: the IC50 (in the experiment on BHK-21 cells; in [1]; in [2]; in [3]; in [4]; in [5]) was 0.05 to 5 mM throughout. Moreover, the 50% inhibitory concentration (IC50) in [6] was in the range of 0.05 to 5 mM; with NF-κB it was 1 to 10 µM; in experiment [7], 0.1 to 1 µM.
`Cc1cc2nc3c(c(O)c2cc1C)C(=O)n1cccc1-3` [Compound 756b, 9-hydroxy-6,7-dimethyl-10H-pyrrolizino[1,2-b]quinolin-10-one]: the IC50 (in the experiment on BHK-21 cells; in experiment [1]; in [2]; in experiment [3]; in experiment [4]; in experiment [5]) was 0.05 to 5 mM throughout. Besides, the IC50 in experiment [6] lay within 0.05 to 5 mM; in the experiment with NF-κB it was 1 to 10 µM; in experiment [7] it was 10 to 50 µM.
For the compound `Cc1cc(C)c2c(=O)c3c([nH]c2c1)-c1cccn1C3=O` [Compound 768a, 6,8-Dimethyl-9H-pyrrolizino[1,2-b]quinoline-9,10(4H)-dione], the IC50 (in the experiment with BHK-21 cells; in experiment [1]; in [2]; in [3]; in [4]; in experiment [5]) was 0.05 to 5 mM each time. Also, the IC50 in experiment [6] was in the range of 0.05 to 5 mM; in the experiment on NF-κB it was 0.1 to 1 µM; in experiment [7], 1 to 10 µM.
As to `Cc1cc(C)c2c(O)c3c(nc2c1)-c1cccn1C3=O` [Compound 768b, 9-hydroxy-6,8-dimethyl-10H-pyrrolizino[1,2-b]quinolin-10-one], the IC50 (in the experiment on BHK-21 cells; in experiment [1]; in [2]; in experiment [3]; in experiment [4]; in [5]) was 0.05 to 5 mM each time. The IC50 in experiment [6] lay within 0.05 to 5 mM; in the experiment on NF-κB it was 1 to 10 µM; in experiment [7], 1 to 10 µM.
For `Cc1ccc(C)c2c(=O)c3c([nH]c12)-c1cccn1C3=O` [Compound 772a, 5,8-Dimethyl-9H-pyrrolizino[1,2-b]quinoline-9,10(4H)-dione], the IC50 in the experiment on BHK-21 cells was less than 0.05 mM; in experiment [1] it was 0.05 to 5 mM; in experiment [2], 0.05 to 5 mM; in [3], 0.05 to 5 mM; in [4], 0.05 to 5 mM; in [5], 0.05 to 5 mM. The IC50 in experiment [6] lay within 0.05 to 5 mM; with NF-κB it was 1 to 10 µM; in [7], 1 to 10 µM.
In the case of `Cc1ccc(C)c2c(O)c3c(nc12)-c1cccn1C3=O` [Compound 772b, 9-hydroxy-5,8-dimethyl-10H-pyrrolizino[1,2-b]quinolin-10-one], the IC50 (with BHK-21 cells; in [1]; in experiment [2]; in experiment [3]; in [4]; in experiment [5]) was 0.05 to 5 mM throughout. The IC50 in experiment [6] lay in the range of 0.05 to 5 mM; in the experiment with NF-κB, 0.1 to 1 µM; in experiment [7], 1 to 10 µM.
Turning to `Cc1cccc2[nH]c3c(c(=O)c12)-c1cccn1C3=O` [Compound 776a, 10-Methyl-5H-pyrrolizino[2,1-b]quinoline-5,11(6H)-dione], the IC50 in the experiment on BHK-21 cells was less than 0.05 mM; in experiment [1], 0.05 to 5 mM; in [2] it was 0.05 to 5 mM; in experiment [3], 0.05 to 5 mM; in [4] it was 0.05 to 5 mM; in experiment [5], 0.05 to 5 mM. Further, the IC50 in [6] was 0.05 to 5 mM; in the experiment on NF-κB, 1 to 10 µM; in experiment [7] it was 10 to 50 µM.
`Cc1cccc2nc3c(c(O)c12)-c1cccn1C3=O` [Compound 776b, 11-hydroxy-10-methyl-5H-pyrrolizino[2,1-b]quinolin-5-one]: the IC50 (with BHK-21 cells; in experiment [1]; in experiment [2]; in experiment [3]; in experiment [4]; in experiment [5]) was 0.05 to 5 mM throughout. For the same compound, the IC50 in experiment [6] was in the range of 0.05 to 5 mM; with NF-κB, 0.1 to 1 µM; in experiment [7], 1 to 10 µM.
On to `O=C1c2c(c(=O)c3ccccc3n2CCCN2CCOCC2)-c2cccn21` [Compound 787a, 6-(3-Morpholinopropyl)-5H-pyrrolizino[2,1-b]quinoline-5,11(6H)-dione], for which the IC50 (with BHK-21 cells; in [1]; in experiment [2]; in experiment [3]; in [4]; in [5]) was 0.05 to 5 mM each time. Moreover, the IC50 in experiment [6] was in the range of 0.05 to 5 mM; in the experiment on NF-κB, 1 to 10 µM; in experiment [7] it was 10 to 50 µM.
Regarding `O=C1c2nc3ccccc3c(OCCCN3CCOCC3)c2-c2cccn21` [Compound 787b, 11-(3-morpholinopropoxy)-5H-pyrrolizino[2,1-b]quinolin-5-one], the IC50 (with BHK-21 cells; in experiment [1]; in [2]; in experiment [3]; in [4]; in experiment [5]) was 0.05 to 5 mM throughout. Besides, the IC50 in experiment [6] lay within 0.05 to 5 mM; in the experiment on NF-κB, 0.1 to 1 µM; in experiment [7], 10 to 50 µM.
In the case of `Cc1ccn2c1-c1c([nH]c3ccccc3c1=O)C2=O` [Compound 797a, 1-Methyl-5H-pyrrolizino[2,1-b]quinoline-5,11(6H)-dione], the IC50 (in the experiment on BHK-21 cells; in experiment [1]; in [2]; in [3]; in experiment [4]; in experiment [5]) was 0.05 to 5 mM throughout. Moreover, the IC50 in experiment [6] was 0.05 to 5 mM; in the experiment with NF-κB it was 1 to 10 µM; in [7], 1 to 10 µM.
In the case of `Cc1ccn2c1-c1c(nc3ccccc3c1O)C2=O` [Compound 797b, 11-hydroxy-1-methyl-5H-pyrrolizino[2,1-b]quinolin-5-one], the IC50 (with BHK-21 cells; in experiment [1]; in experiment [2]; in experiment [3]; in experiment [4]; in experiment [5]) was 0.05 to 5 mM throughout. In addition, the IC50 in [6] is 0.05 to 5 mM; with NF-κB, 0.1 to 1 µM; in [7] it was 1 to 10 µM.
For `Cc1cc2n(c1)C(=O)c1[nH]c3ccccc3c(=O)c1-2` [Compound 798a, 2-Methyl-5H-pyrrolizino[2,1-b]quinoline-5,11(6H)-dione], the IC50 in the experiment on BHK-21 cells is less than 0.05 mM; in [1], 0.05 to 5 mM; in [2], 0.05 to 5 mM; in [3], 0.05 to 5 mM; in experiment [4], 0.05 to 5 mM; in [5], 0.05 to 5 mM. The results for the IC50 (in [6]; in the experiment with NF-κB; in experiment [7]) were 0.05 to 5 mM, 1 to 10 µM and 1 to 10 µM, respectively.
In the case of `Cc1cc2n(c1)C(=O)c1nc3ccccc3c(O)c1-2` [Compound 798b, 11-hydroxy-2-methyl-5H-pyrrolizino[2,1-b]quinolin-5-one], the IC50 (with BHK-21 cells; in experiment [1]; in experiment [2]; in experiment [3]; in experiment [4]; in experiment [5]) was 0.05 to 5 mM each time. Further, the IC50 is 0.05 to 5 mM in experiment [6], 1 to 10 µM with NF-κB and 1 to 10 µM in experiment [7].

The term IC50 denotes the concentration that inhibits the measured activity by half.

Source of the values: patent publication US11040028B2, “Penicinotam derivative, preparation method and use thereof” (OCEAN UNIVERSITY OF CHINA, priority 2017, dated 2021).
